Drawing on patent US20160002204A1 (Board of Regents, The University of Texas System, priority 2014, published 2016), this text covers IC50 and EC50 for 20 compounds.

Experiment [1] concerns the target T1, GLS1 (purified recombinant human GAC) (Homo sapiens, UniProt O94925).
T1 sequence (O94925 55-598 isoform O94925-3 limits assumed): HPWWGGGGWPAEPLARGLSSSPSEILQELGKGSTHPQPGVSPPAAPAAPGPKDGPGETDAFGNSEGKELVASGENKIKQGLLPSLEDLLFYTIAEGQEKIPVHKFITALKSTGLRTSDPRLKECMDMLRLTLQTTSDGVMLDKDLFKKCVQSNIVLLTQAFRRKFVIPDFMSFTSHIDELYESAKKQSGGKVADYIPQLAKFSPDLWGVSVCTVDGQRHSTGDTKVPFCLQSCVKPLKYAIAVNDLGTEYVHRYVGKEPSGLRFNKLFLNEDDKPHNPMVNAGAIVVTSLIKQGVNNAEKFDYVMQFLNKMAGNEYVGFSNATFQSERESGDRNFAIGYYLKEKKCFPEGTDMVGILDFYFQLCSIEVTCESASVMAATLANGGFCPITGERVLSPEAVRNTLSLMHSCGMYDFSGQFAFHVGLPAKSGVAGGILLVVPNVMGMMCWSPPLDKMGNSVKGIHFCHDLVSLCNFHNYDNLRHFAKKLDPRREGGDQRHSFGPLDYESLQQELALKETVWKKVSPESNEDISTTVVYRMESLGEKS
Briefly: GLS1 enzymatic activity assay (dual-coupled, Amplex UltraRed/resorufin). Format: biochemical. The method in brief:
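Recombinant human GAC (2 nM) preincubated with 50 mM potassium phosphate, then inhibitor (10 min each, RT); 1 mM glutamine, pH 7.4 Hepes buffer, 1% DMSO. Glutamate coupled via glutamate oxidase/HRP to resorufin (Ex 530/Em 590), kinetic or 20-min endpoint; IC50 by four-parameter logistic fit.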

A further experiment deals with A549 cells. Briefly: A549 proliferation (viability) assay, Cell Titer Fluor, 72 hours. Format: cell-based. Conditions: Homo sapiens. The method in brief:
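Compound exposure lasted 72 h (final DMSO 0.5% v/v) on A549 cells plated at 1000 cells/well one day earlier. Cell Titer Fluor added, 30 min at 37 °C, fluorescence read; EC50 derived by four-parameter logistic curve fitting.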

As for `O=C(CC1CCCC1)Nc1ccn(CCC(F)Cn2cc(C(=O)NCc3cccc(OC(F)(F)F)c3)nn2)c(=O)c1F` (stereo not shown) [Example 355, 1-{4-[4-(2-cyclopentylacetamido)-3-fluoro-2-oxo-1,2-dihydropyridin-1-yl]-2-fluorobutyl}-N-{[3-(trifluoromethoxy)phenyl]methyl}-1H-1,2,3-triazole-4-carboxamide], in experiment [1], the IC50 was less than 0.1 µM. This compound registered an EC50 with A549 cells of less than 0.1 µM.
`O=C(CC1CCC1)Nc1ccn(CCC(F)Cn2cc(C(=O)NCc3ncccc3F)nn2)c(=O)c1F` (stereo not shown) [Example 356, 1-{4-[4-(2-cyclobutylacetamido)-3-fluoro-2-oxo-1,2-dihydropyridin-1-yl]-2-fluorobutyl}-N-[(3-fluoropyridin-2-yl)methyl]-1H-1,2,3-triazole-4-carboxamide]: the IC50 in experiment [1] lay in the range of 0.1 to 0.5 µM. Also, the EC50 with A549 cells was 0.1 to 0.5 µM.
Consider `O=C(CC1CCC1)Nc1ccn(CCC(F)Cn2cc(C(=O)NCc3ccc(C(F)(F)F)nc3)nn2)c(=O)c1F` (stereo not shown) [Example 357, 1-{4-[4-(2-cyclobutylacetamido)-3-fluoro-2-oxo-1,2-dihydropyridin-1-yl]-2-fluorobutyl}-N-{[6-(trifluoromethyl)pyridin-3-yl]methyl}-1H-1,2,3-triazole-4-carboxamide], for which the IC50 in experiment [1] was less than 0.1 µM. The EC50 in the experiment on A549 cells is 0.1 to 0.5 µM.
Turning to `O=C(Nc1ccn(CCC(F)Cn2cc(C(=O)NCc3cccc(OC(F)(F)F)c3)nn2)c(=O)c1F)C(=O)N1CCCCC1` (stereo not shown) [Example 358, 1-(2-fluoro-4-(3-fluoro-2-oxo-4-(2-oxo-2-(piperidin-1-yl)acetamido)pyridin-1(2H)-yl)butyl)-N-(3-(trifluoromethoxy)benzyl)-1H-1,2,3-triazole-4-carboxamide], in experiment [1], the IC50 is less than 0.1 µM. In the experiment on A549 cells, the EC50 was less than 0.1 µM.
Turning to `O=C(O)C(=O)Nc1ccn(CCC(F)Cn2cc(C(=O)NCc3cccc(OC(F)(F)F)c3)nn2)c(=O)c1F` (stereo not shown) [Example 359, [(3-fluoro-1-{3-fluoro-4-[4-({[3-(trifluoromethoxy)phenyl]methyl}carbamoyl)-1H-1,2,3-triazol-1-yl]butyl}-2-oxo-1,2-dihydropyridin-4-yl)carbamoyl]formic acid], in experiment [1], the concentration for half-maximal inhibition (IC50) was 0.1 to 0.5 µM. The same compound had an EC50 in the experiment on A549 cells of 0.5 to 5 µM.
Taken in the same sequence, the figures for `O=C(CC1CCCC1)Nc1ccn(CCC(F)Cn2cc(C(=O)NCc3cncc(C(F)(F)F)c3)nn2)c(=O)c1F` (stereo not shown) [Example 360, 1-{4-[4-(2-cyclopentylacetamido)-3-fluoro-2-oxo-1,2-dihydropyridin-1-yl]-2-fluorobutyl}-N-{[5-(trifluoromethyl)pyridin-3-yl]methyl}-1H-1,2,3-triazole-4-carboxamide] were less than 0.1 µM and less than 0.1 µM.
As to `O=C(Cc1ccccc1F)Nc1ccn(CCC(F)Cn2cc(C(=O)NCc3cncc(C(F)(F)F)c3)nn2)c(=O)c1F` (stereo not shown) [Example 361, 1-(2-fluoro-4-{3-fluoro-4-[2-(2-fluorophenyl)acetamido]-2-oxo-1,2-dihydropyridin-1-yl}butyl)-N-{[5-(trifluoromethyl)pyridin-3-yl]methyl}-1H-1,2,3-triazole-4-carboxamide], in experiment [1], the IC50 was less than 0.1 µM. For the same compound, the EC50 in the experiment on A549 cells was less than 0.1 µM.
Consider `O=C(NCc1cncc(C(F)(F)F)c1)c1cn(CC(F)CCn2ccc(NC(=O)C(F)c3ccccc3)c(F)c2=O)nn1` (stereo not shown) [Example 362, 1-{2-fluoro-4-[3-fluoro-4-(2-fluoro-2-phenylacetamido)-2-oxo-1,2-dihydropyridin-1-yl]butyl}-N-{[5-(trifluoromethyl)pyridin-3-yl]methyl}-1H-1,2,3-triazole-4-carboxamide], for which the IC50 in experiment [1] is less than 0.1 µM. In the experiment with A549 cells, the EC50 is less than 0.1 µM.
Take `CCOC(=O)N1CCC(CC(=O)Nc2ccn(CCC(F)Cn3cc(C(=O)NCc4cncc(C(F)(F)F)c4)nn3)c(=O)c2F)CC1` (stereo not shown) [Example 363, ethyl 4-{[(3-fluoro-1-{3-fluoro-4-[4-({[5-(trifluoromethyl)pyridin-3-yl]methyl}carbamoyl)-1H-1,2,3-triazol-1-yl]butyl}-2-oxo-1,2-dihydropyridin-4-yl)carbamoyl]methyl}piperidine-1-carboxylate]: in experiment [1], the IC50 was less than 0.1 µM. Further, in the experiment with A549 cells, the half-maximal effective concentration (EC50) was less than 0.1 µM.
For the compound `O=C(NCc1cncc(C(F)(F)F)c1)c1cn(CC(F)CCn2ccc(NC(=O)C3CCCC3)c(F)c2=O)nn1` (stereo not shown) [Example 364, 1-[4-(4-cyclopentaneamido-3-fluoro-2-oxo-1,2-dihydropyridin-1-yl)-2-fluorobutyl]-N-{[5-(trifluoromethyl)pyridin-3-yl]methyl}-1H-1,2,3-triazole-4-carboxamide], the IC50 in experiment [1] was less than 0.1 µM. The compound further registered an EC50 in the experiment on A549 cells of less than 0.1 µM.
For the compound `Nc1ccn(CCC(F)Cn2cc(C(=O)NCc3ccc(C(F)(F)F)nc3)nn2)c(=O)c1F` (stereo not shown) [Example 366, 1-[4-(4-amino-3-fluoro-2-oxo-1,2-dihydropyridin-1-yl)-2-fluorobutyl]-N-{[6-(trifluoromethyl)pyridin-3-yl]methyl}-1H-1,2,3-triazole-4-carboxamide], the IC50 in experiment [1] is greater than 5 µM. The compound further returned a 50% effective concentration (EC50) in the experiment with A549 cells greater than 5 µM.
`O=C(Cc1ccccc1)Nc1ccn(CCC(F)Cn2cc(C(=O)NCc3ccc(C(F)(F)F)nc3)nn2)c(=O)c1F` (stereo not shown) [Example 367, 1-{2-fluoro-4-[3-fluoro-2-oxo-4-(2-phenylacetamido)-1,2-dihydropyridin-1-yl]butyl}-N-{[6-(trifluoromethyl)pyridin-3-yl]methyl}-1H-1,2,3-triazole-4-carboxamide]: in experiment [1], the IC50 is less than 0.1 µM. This compound also came in with an EC50 in the experiment with A549 cells of 0.1 to 0.5 µM.
The corresponding values for `C[C@H](C(=O)Nc1ccn(CCC(F)Cn2cc(C(=O)NCc3ccc(C(F)(F)F)nc3)nn2)c(=O)c1F)c1ccccc1` (stereo partly drawn) [Example 368, 1-(2-fluoro-4-{3-fluoro-2-oxo-4-[(2S)-2-phenylpropanamido]-1,2-dihydropyridin-1-yl}butyl)-N-{[6-(trifluoromethyl)pyridin-3-yl]methyl}-1H-1,2,3-triazole-4-carboxamide] are less than 0.1 µM and less than 0.1 µM.
The corresponding values for `O=C(CC1CCCC1)Nc1ccn(CCC(F)Cn2cc(C(=O)NCc3ccc(C(F)(F)F)nc3)nn2)c(=O)c1F` (stereo not shown) [Example 369, 1-{4-[4-(2-cyclopentylacetamido)-3-fluoro-2-oxo-1,2-dihydropyridin-1-yl]-2-fluorobutyl}-N-{[6-(trifluoromethyl)pyridin-3-yl]methyl}-1H-1,2,3-triazole-4-carboxamide] are less than 0.1 µM and less than 0.1 µM.
`O=C(NCc1ccc(C(F)(F)F)nc1)c1cn(CC(F)CCn2ccc(NC(=O)C3CCCC3)c(F)c2=O)nn1` (stereo not shown) [Example 370, 1-[4-(4-cyclopentaneamido-3-fluoro-2-oxo-1,2-dihydropyridin-1-yl)-2-fluorobutyl]-N-{[6-(trifluoromethyl)pyridin-3-yl]methyl}-1H-1,2,3-triazole-4-carboxamide]: the IC50 in experiment [1] fell in the range of 0.1 to 0.5 µM. Moreover, in the experiment on A549 cells, the EC50 lay in the range of 0.1 to 0.5 µM.
For the compound `O=C(Cc1ccccc1F)Nc1ccn(CCC(F)Cn2cc(C(=O)NCc3ccc(C(F)(F)F)nc3)nn2)c(=O)c1F` (stereo not shown) [Example 371, 1-(2-fluoro-4-{3-fluoro-4-[2-(2-fluorophenyl)acetamido]-2-oxo-1,2-dihydropyridin-1-yl}butyl)-N-{[6-(trifluoromethyl)pyridin-3-yl]methyl}-1H-1,2,3-triazole-4-carboxamide], the IC50 in experiment [1] is less than 0.1 µM. Moreover, the EC50 in the experiment with A549 cells lay in the range of 0.1 to 0.5 µM.
Taken in the same sequence, the figures for `O=C(NCc1ccc(C(F)(F)F)nc1)c1cn(CC(F)CCn2ccc(NC(=O)C(F)c3ccccc3)c(F)c2=O)nn1` (stereo not drawn) [Example 372, l-{2-fluoro-4-[3-fluoro-4-(2-fluoro-2-phenylacetamido)-2-oxo-1,2-dihydropyridin-1-yl]butyl}-N-{[6-(trifluoromethyl)pyridin-3-yl]methyl}-1H-1,2,3-triazole-4-carboxamide] were less than 0.1 µM and 0.1 to 0.5 µM.
In the case of `O=C(Cc1ccccc1)Nc1ccn(CCC(F)Cn2cc(C(=O)NCc3ncccc3F)nn2)c(=O)c1F` (stereo not shown) [Example 373, 1-{2-fluoro-4-[3-fluoro-2-oxo-4-(2-phenylacetamido)-1,2-dihydropyridin-1-yl]butyl}-N-[(3-fluoropyridin-2-yl)methyl]-1H-1,2,3-triazole-4-carboxamide], the IC50 in experiment [1] was 0.1 to 0.5 µM. In the experiment with A549 cells, this compound gave an EC50 of 0.5 to 5 µM.
Take `O=C(CC1CCC1)Nc1ccn(CCC(F)Cn2cc(C(=O)NCc3ccc(CF)nc3)nn2)c(=O)c1F` (stereo not shown) [Example 374, 1-{4-[4-(2-cyclobutylacetamido)-3-fluoro-2-oxo-1,2-dihydropyridin-1-yl]-2-fluorobutyl}-N-{[6-(fluoromethyl)pyridin-3-yl]methyl}-1H-1,2,3-triazole-4-carboxamide]: in experiment [1], the IC50 is less than 0.1 µM. This compound also gave an EC50 in the experiment with A549 cells of 0.1 to 0.5 µM.
The corresponding values for `O=C(Cc1ccccc1)Nc1ccn(CCC(F)Cn2cc(C(=O)NCc3ccc(CF)nc3)nn2)c(=O)c1F` (stereo not shown) [Example 375, 1-{2-fluoro-4-[3-fluoro-2-oxo-4-(2-phenylacetamido)-1,2-dihydropyridin-1-yl]butyl}-N-{[6-(fluoro-methyl)pyridin-3-yl]methyl}-1H-1,2,3-triazole-4-carboxamide] are 0.1 to 0.5 µM and 0.5 to 5 µM.
